Reference: patent publication US12258354B2, “AhR modulators” (IDEAYA BIOSCIENCES, INC., priority 2018, dated 2025)

Biological target: T1, hAhR (Homo sapiens, UniProt P35869)
T1 construct: Stably integrated DRE-luciferase cell lines were generated by transducing the both cell lines with Cignal XRE luciferase reporter; endogenous in cells; host or cells: HEPG2 DRE-Luc cells (only the XRE luciferase reporter was transduced)
T1 sequence (P35869 11-848): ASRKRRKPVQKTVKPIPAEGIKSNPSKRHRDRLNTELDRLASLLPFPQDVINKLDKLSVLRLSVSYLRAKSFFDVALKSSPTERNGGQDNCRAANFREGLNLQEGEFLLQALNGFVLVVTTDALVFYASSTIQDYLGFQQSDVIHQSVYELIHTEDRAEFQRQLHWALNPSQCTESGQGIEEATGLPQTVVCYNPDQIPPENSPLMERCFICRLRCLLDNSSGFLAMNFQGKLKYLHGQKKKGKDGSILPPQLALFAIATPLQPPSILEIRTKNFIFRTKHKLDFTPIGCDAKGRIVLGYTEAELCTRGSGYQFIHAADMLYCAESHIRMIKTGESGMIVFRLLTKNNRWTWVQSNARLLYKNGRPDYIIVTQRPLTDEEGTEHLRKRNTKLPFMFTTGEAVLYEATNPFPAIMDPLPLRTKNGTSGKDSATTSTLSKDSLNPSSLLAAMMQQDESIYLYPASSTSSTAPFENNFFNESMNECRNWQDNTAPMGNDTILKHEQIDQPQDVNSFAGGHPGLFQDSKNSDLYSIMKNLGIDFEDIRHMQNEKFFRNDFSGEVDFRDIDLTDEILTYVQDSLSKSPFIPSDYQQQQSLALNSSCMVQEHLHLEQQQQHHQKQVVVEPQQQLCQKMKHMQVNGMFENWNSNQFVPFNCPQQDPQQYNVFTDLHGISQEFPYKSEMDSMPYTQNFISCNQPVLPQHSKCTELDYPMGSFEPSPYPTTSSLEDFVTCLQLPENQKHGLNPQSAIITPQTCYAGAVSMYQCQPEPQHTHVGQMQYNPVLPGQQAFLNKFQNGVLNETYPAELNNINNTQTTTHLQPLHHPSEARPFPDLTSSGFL
Assay: DRE-luciferase transcriptional reporter assay in HEPG2 DRE-Luc cells, TCDD-induced (antagonist mode)
Assay type: cell-based
Details: relative IC50, 3 nM TCDD, 24-hour incubation, firefly luciferase readout
Procedure, shortened: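 Stable DRE(XRE)-luciferase HEPG2 clone seeded in OptiMEM with 0.5% heat-inactivated FBS, then given a semi-log compound dilution plus TCDD at 3 nM final. After 24 h, cells were lysed and firefly luminescence read. Response was normalised between TCDD and vehicle, and relative IC50 was taken as half-reduction between the fitted curve plateaus.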

Structure (SMILES) | IC50 [nM]
Cc1cc(-c2ncc3cc(C(F)(F)F)ccc3n2)ccc1N1CCn2ncc(Br)c2C1=O [compound 064, 3-bromo-5-(2-methyl-4-(6-(trifluoromethyl)quinazolin-2-yl)phenyl)-6,7-dihydropyrazolo[1,5-a]pyrazin-4 (5H)-one] | < 200
Cc1cc(-c2ncc3cc(C(F)(F)F)ccc3n2)ccc1N1CCn2ncc(C(=O)O)c2C1=O [compound 065, 5-(2-methyl-4-(6-(trifluoromethyl)quinazolin-2-yl)phenyl)-4-oxo-4,5,6,7-tetrahydropyrazolo[1,5-a]pyrazine-3-carboxylic acid] | 500 to 1000
Cc1cc(-c2ncc3cc(C(F)(F)F)ccc3n2)ccc1N1CCn2ncc(C(N)=O)c2C1=O [compound 066, 5-(2-methyl-4-(6-(trifluoromethyl)quinazolin-2-yl)phenyl)-4-oxo-4,5,6,7-tetrahydropyrazolo[1,5-a]pyrazine-3-carboxamide] | < 200
Cc1cc(-c2ncc3cc(C(F)(F)F)ccc3n2)ccc1N1CCn2ncc(C#N)c2C1=O [compound 067, 5-(2-methyl-4-(6-(trifluoromethyl)quinazolin-2-yl)phenyl)-4-oxo-4,5,6,7-tetrahydropyrazolo[1,5-a]pyrazine-3-carbonitrile] | < 200
Cc1cc(-c2ncc3cc(C(F)(F)F)ccc3n2)ccc1N1CCn2ncc(N3CCOCC3)c2C1=O [compound 068, 5-(2-methyl-4-(6-(trifluoromethyl)quinazolin-2-yl)phenyl)-3-morpholino-6,7-dihydropyrazolo[1,5-a]pyrazin-4 (5H)-one] | < 200
Cc1cc(-c2ncc3cc(C(F)(F)F)ccc3n2)ccc1N1CCn2ncc(CN3CCOCC3)c2C1=O [compound 070, 5-(2-methyl-4-(6-(trifluoromethyl)quinazolin-2-yl)phenyl)-3-(morpholino-methyl)-6,7-dihydropyrazolo[1,5-a]pyrazin-4 (5H)-one] | < 200
Cc1cc(-c2ncc3cc(C(F)(F)F)ccc3n2)ccc1N1CCOc2cnn(CCN3CCOCC3)c2C1=O [compound 071, 7-(2-methyl-4-(6-(trifluoromethyl)quinazolin-2-yl)phenyl)-1-(2-morpholinoethyl)-6,7-dihydro-1H-pyrazolo[3,4-f][1,4]oxazepin-8 (5H)-one] | 500 to 1000
Cc1cc(-c2ncc3cc(C(F)(F)F)ccc3n2)ccc1N1CCOc2cnn(CCN3CCC(O)CC3)c2C1=O [compound 072, 1-(2-(4-hydroxypiperidin-1-yl)ethyl)-7-(2-methyl-4-(6-(trifluoromethyl)-quinazolin-2-yl)phenyl)-6,7-dihydro-1H-pyrazolo[3,4-f][1,4]oxazepin-8 (5H)-one] | 1000 to 10000
Cc1cc(-c2ncc3cc(C(F)(F)F)ccc3n2)ccc1N1CCOc2cnn(CCN3CCC(F)(F)CC3)c2C1=O [compound 073, 1-(2-(4,4-difluoropiperidin-1-yl)ethyl)-7-(2-methyl-4-(6-(trifluoromethyl)-quinazolin-2-yl)phenyl)-6,7-dihydro-1H-pyrazolo[3,4-f][1,4]oxazepin-8 (5H)-one] | 1000 to 10000
Cc1cc(-c2ncc3cc(C(F)(F)F)ccc3n2)ccc1N1CCOc2cnn(Cc3nnn[nH]3)c2C1=O [compound 075, 7-[2-methyl-4-[6-(trifluoromethyl)quinazolin-2-yl]phenyl]-1-[(1H-1,2,3,4-tetrazol-5-yl)methyl]-1H,5H,6H,7H,8H-pyrazolo[3,4-f][1,4]oxazepin-8-one] | 1000 to 10000
Cc1cc(-c2ncc3cc(C(F)(F)F)ccc3n2)ccc1N1CCOc2cnn(CC(=O)O)c2C1=O [compound 076, 2-(7-(2-methyl-4-(6-(trifluoromethyl)quinazolin-2-yl)phenyl)-8-oxo-5,6,7,8-tetrahydro-1H-pyrazolo[3,4-f][1,4]oxazepin-1-yl)acetic acid] | 1000 to 10000
Cc1cc(-c2ncc3cc(C(F)(F)F)ccc3n2)ccc1N1CCOc2cn(Cc3nnn[nH]3)nc2C1=O [compound 077, 2-((1H-tetrazol-5-yl)methyl)-7-(2-methyl-4-(6-(trifluoromethyl)-quinazolin-2-yl)phenyl)-6,7-dihydro-2H-pyrazolo[3,4-f][1,4]oxazepin-8 (5H)-one] | 1000 to 10000
Cc1cc(-c2ncc3cc(C(F)(F)F)ccc3n2)ccc1N1CCOc2cn(CC(=O)O)nc2C1=O [compound 078, 2-(7-(2-methyl-4-(6-(trifluoromethyl)quinazolin-2-yl)phenyl)-8-oxo-5,6,7,8-tetrahydro-2H-pyrazolo[3,4-f][1,4]oxazepin-2-yl)acetic acid] | 1000 to 10000
Cc1cc(-c2ncc3cc(C(F)(F)F)ccc3n2)ccc1N1CCn2ncc(CO)c2C1=O [compound 079, 3-(hydroxymethyl)-5-(2-methyl-4-(6-(trifluoromethyl)quinazolin-2-yl)phenyl)-6,7-dihydropyrazolo[1,5-a]pyrazin-4 (5H)-one] | < 200
Cc1cc(-c2ncc3cc(C(F)(F)F)ccc3n2)ccc1N1CCn2nc(C(=O)N[C@H](C)CO)c(C)c2C1=O [compound 080, (R)-N-(1-hydroxypropan-2-yl)-3-methyl-5-(2-methyl-4-(6-(trifluoromethyl)-quinazolin-2-yl)phenyl)-4-oxo-4,5,6,7-tetrahydropyrazolo[1,5-a]pyrazine-2-carboxamide] | < 200
Cc1cc(-c2ncc3cc(C(F)(F)F)ccc3n2)ccc1N1CCn2ncc(N[C@@H](C)CO)c2C1=O [compound 081, (S)-3-((1-hydroxypropan-2-yl)amino)-5-(2-methyl-4-(6-(trifluoromethyl)-quinazolin-2-yl)phenyl)-6,7-dihydropyrazolo[1,5-a]pyrazin-4 (5H)-one] | < 200
Cc1cc(-c2ncc3nc(C(F)(F)F)ccc3n2)ccc1N1CCOc2c(CO)nn(C)c2C1=O [compound 082, 3-(hydroxymethyl)-1-methyl-7-(2-methyl-4-(6-(trifluoromethyl)-pyrido-[3,2-d]pyrimidin-2-yl)phenyl)-6,7-dihydro-1H-pyrazolo[3,4-f][1,4]oxazepin-8 (5H)-one] | < 200
Cc1cc(-c2ncc3nc(C(F)(F)F)ccc3n2)ccc1N1CCOc2c(C(C)O)nn(C)c2C1=O (stereo not drawn) [compound 083, 3-(1-hydroxyethyl)-1-methyl-7-(2-methyl-4-(6-(trifluoromethyl)-pyrido[3,2-d]pyrimidin-2-yl)phenyl)-6,7-dihydro-1H-pyrazolo[3,4-f][1,4]oxazepin-8 (5H)-one] | < 200
Cc1cc(-c2ncc3nc(C(F)(F)F)ccc3n2)ccc1N1CCOc2c(C(C)(C)O)nn(C)c2C1=O [compound 084, 3-(2-hydroxypropan-2-yl)-1-methyl-7-(2-methyl-4-(6-(trifluoromethyl)pyrido[3,2-d]pyrimidin-2-yl)phenyl)-6,7-dihydro-1H-pyrazolo[3,4-f][1,4]oxazepin-8 (5H)-one] | < 200
Cc1cc(-c2ncc3nc(C(F)(F)F)ccc3n2)ccc1N1CCOc2c(CN(C)C)nn(C)c2C1=O [compound 085, 3-((dimethylamino)methyl)-1-methyl-7-(2-methyl-4-(6-(trifluoromethyl)pyrido-[3,2-d]pyrimidin-2-yl)phenyl)-6,7-dihydro-1H-pyrazolo[3,4-f][1,4]oxazepin-8 (5H)-one] | < 200
CCOC(=O)c1nn(C)c2c1OCCN(c1ccc(-c3ncc4nc(C(F)(F)F)ccc4n3)cc1C)C2=O [compound 086, ethyl 1-methyl-7-(2-methyl-4-(6-(trifluoromethyl)pyrido[3,2-d]pyrimidin-2-yl)phenyl)-8-oxo-5,6,7,8-tetrahydro-1H-pyrazolo[3,4-f][1,4]oxazepine-3-carboxylate] | < 200
Cc1cc(-c2ncc3nc(C(F)(F)F)ccc3n2)ccc1N1CCn2nc(CO)c(C)c2C1=O [compound 088, 2-(hydroxymethyl)-3-methyl-5-(2-methyl-4-(6-(trifluoromethyl)-pyrido-[3,2-d]pyrimidin-2-yl)phenyl)-6,7-dihydropyrazolo[1,5-a]pyrazin-4 (5H)-one] | < 200
Cc1cc(-c2ncc3cc(C(F)(F)F)ccc3n2)ccc1N1CCn2nc(OCCO)c(C)c2C1=O [compound 089, 2-(2-hydroxyethoxy)-3-methyl-5-(2-methyl-4-(6-(trifluoromethyl)quinazolin-2-yl)phenyl)-6,7-dihydropyrazolo[1,5-a]pyrazin-4 (5H)-one] | < 200
Cc1cc(-c2ncc3cc(C(F)(F)F)ccc3n2)ccc1N1CC(COCc2ccccc2)n2ncc(C)c2C1=O (stereo not drawn) [compound 090, 7-((benzyloxy)methyl)-3-methyl-5-(2-methyl-4-(6-(trifluoromethyl)-quinazolin-2-yl)phenyl)-6,7-dihydropyrazolo[1,5-a]pyrazin-4 (5H)-one] | < 200
